According to patent US8802849B2, “Tricyclic benzo[4,5]thieno-[2,3-d]pyrimidine-4-yl-amin derivatives, their salts, process for producing the compounds and their pharmaceutical use” (Vichem Chemie Kutató Kft., priority 2008, dated 2014):

Columns and labels:
[1] = target: Abl (Homo sapiens, UniProt P00519); assay: Abl kinase assay; type: biochemical; settings: 10 μM compound; read-out: Abl percent of inhibition
Experimental: (§1) General description of the kinase assays: the kinase activity was assayed in 96-well microtiter plates at a final compound concentration of 10 μM in a total volume of 50 μl. Compounds were dissolved in 100% DMSO to prepare a 10 mM stock solution and than diluted with buffer to reach a 10 μM (or the required) final concentration. The kinase concentration was used to yield 10% ATP turn over. The ATP concentration was used at the KmATP and 12.5 μCi/ml adenosine 5′[γ-33P]triphosphate. The substrate concentration was used at 5 fold excess over the Km for the substrate. The reaction was incubated for 1 hour at room temperature and stopped by addition of 10 μl 50 mM EDTA. The assay was transferred to a 96 well MAPH filter plate (Millipore). The radioactivity was counted on a Microbeta microplate counter.

[2] = target: Jnk1a1 (Homo sapiens, UniProt P45983); assay: Jnk1a1 kinase assay; type: biochemical; settings: 10 μM compound; read-out: Jnk1a1 percent of inhibition
Experimental: as §1

[3] = target: P56Lck (Homo sapiens, UniProt P06239); assay: P56Lck kinase assay; type: biochemical; settings: 10 μM compound; read-out: P56Lck percent of inhibition
Experimental: as §1

[4] = target: EGFR (Homo sapiens, UniProt P00533); assay: EGFR kinase assay (33P-ATP filter plate); type: biochemical; settings: 10 μM compound; read-out: EGFR percent of inhibition
Experimental: as §1

[5] = target: Kit (Homo sapiens, UniProt P10721); assay: Kit kinase assay; type: biochemical; settings: 10 μM compound; read-out: Kit percent of inhibition
Experimental: as §1

[6] = target: SRPK1 (Homo sapiens, UniProt Q96SB4); assay: SRPK1 kinase assay; type: biochemical; settings: 10 μM compound; read-out: SRPK1 percent of inhibition
Experimental: as §1

[7] = target: RSK1 (Homo sapiens, UniProt Q15418); assay: RSK1 kinase assay; type: biochemical; settings: 10 μM compound; read-out: RSK1 percent of inhibition
Experimental: as §1

[8] = target: cMet (Homo sapiens, UniProt P08581); assay: cMet kinase assay; type: biochemical; settings: 10 μM compound; read-out: cMet percent of inhibition
Experimental: as §1

[9] = target: PDGFR-beta (Homo sapiens, UniProt P09619); assay: PDGFR-beta kinase assay; type: biochemical; settings: 10 μM compound; read-out: PDGFR-beta percent of inhibition
Experimental: as §1

[10] = target: T1, IKK-beta (Homo sapiens, UniProt O14920); assay: IKK-beta kinase assay; type: biochemical; settings: 10 μM compound; read-out: IKK-beta percent of inhibition
T1 sequence (O14920 1-756): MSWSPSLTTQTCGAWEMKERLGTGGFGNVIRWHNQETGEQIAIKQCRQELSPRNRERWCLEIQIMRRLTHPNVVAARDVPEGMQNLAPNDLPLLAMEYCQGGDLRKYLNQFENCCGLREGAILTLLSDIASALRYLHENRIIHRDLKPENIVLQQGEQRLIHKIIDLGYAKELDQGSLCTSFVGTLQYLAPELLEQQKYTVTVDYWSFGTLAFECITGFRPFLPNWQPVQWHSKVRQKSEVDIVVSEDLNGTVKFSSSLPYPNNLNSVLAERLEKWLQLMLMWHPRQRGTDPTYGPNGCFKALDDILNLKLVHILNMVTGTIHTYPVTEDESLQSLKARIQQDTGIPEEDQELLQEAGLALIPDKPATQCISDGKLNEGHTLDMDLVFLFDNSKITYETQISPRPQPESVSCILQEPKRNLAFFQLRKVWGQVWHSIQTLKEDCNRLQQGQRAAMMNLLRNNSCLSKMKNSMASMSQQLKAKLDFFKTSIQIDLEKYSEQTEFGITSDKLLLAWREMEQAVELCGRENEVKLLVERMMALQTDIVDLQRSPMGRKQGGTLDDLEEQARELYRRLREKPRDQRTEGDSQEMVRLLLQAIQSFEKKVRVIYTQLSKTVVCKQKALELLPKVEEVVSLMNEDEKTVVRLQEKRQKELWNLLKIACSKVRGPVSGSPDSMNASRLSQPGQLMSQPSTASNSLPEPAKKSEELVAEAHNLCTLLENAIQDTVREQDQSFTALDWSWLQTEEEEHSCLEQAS
Experimental: as §1

[11] = target: ROCK2 (Homo sapiens, UniProt O75116); assay: ROCK2 kinase assay; type: biochemical; settings: 10 μM compound; read-out: ROCK2 percent of inhibition
Experimental: as §1

[12] = target: InsR (Homo sapiens, UniProt P06213); assay: InsR kinase assay; type: biochemical; settings: 10 μM compound; read-out: InsR percent of inhibition
Experimental: as §1

[13] = target: c-Src (Homo sapiens, UniProt P12931); assay: c-Src kinase assay; type: biochemical; settings: 10 μM compound; read-out: c-Src percent of inhibition
Experimental: as §1

[14] = target: AKT1/PKBa (Homo sapiens, UniProt P31749); assay: AKT1/PKBa kinase assay; type: biochemical; settings: 10 μM compound; read-out: AKT1/PKBa percent of inhibition
Experimental: as §1

[15] = target: CK1-alpha (Homo sapiens, UniProt P48729); assay: CK1-alpha kinase assay; type: biochemical; settings: 10 μM compound; read-out: CK1-alpha percent of inhibition
Experimental: as §1

[16] = target: P70S6K (Homo sapiens, UniProt P23443); assay: P70S6K kinase assay; type: biochemical; settings: 10 μM compound; read-out: P70S6K percent of inhibition
Experimental: as §1

[17] = target: GSK-3beta (Homo sapiens, UniProt P49841); assay: GSK-3beta kinase assay; type: biochemical; settings: 10 μM compound; read-out: GSK-3beta percent of inhibition
Experimental: as §1

[18] = target: c-Raf (Homo sapiens, UniProt P04049); assay: c-Raf kinase assay; type: biochemical; settings: 10 μM compound; read-out: c-Raf percent of inhibition
Experimental: as §1

[19] = target: MAPK-ERK1 (Homo sapiens, UniProt P27361); assay: MAPK-ERK1 kinase assay; type: biochemical; settings: 10 μM compound; read-out: MAPK-ERK1 percent of inhibition
Experimental: as §1

[20] = target: CDK2/CycA (Homo sapiens, UniProt P24941); assay: CDK2/CycA kinase assay; type: biochemical; settings: 10 μM compound; read-out: CDK2/CycA percent of inhibition
Experimental: as §1

Chain of EGFR (P00533 25-1210): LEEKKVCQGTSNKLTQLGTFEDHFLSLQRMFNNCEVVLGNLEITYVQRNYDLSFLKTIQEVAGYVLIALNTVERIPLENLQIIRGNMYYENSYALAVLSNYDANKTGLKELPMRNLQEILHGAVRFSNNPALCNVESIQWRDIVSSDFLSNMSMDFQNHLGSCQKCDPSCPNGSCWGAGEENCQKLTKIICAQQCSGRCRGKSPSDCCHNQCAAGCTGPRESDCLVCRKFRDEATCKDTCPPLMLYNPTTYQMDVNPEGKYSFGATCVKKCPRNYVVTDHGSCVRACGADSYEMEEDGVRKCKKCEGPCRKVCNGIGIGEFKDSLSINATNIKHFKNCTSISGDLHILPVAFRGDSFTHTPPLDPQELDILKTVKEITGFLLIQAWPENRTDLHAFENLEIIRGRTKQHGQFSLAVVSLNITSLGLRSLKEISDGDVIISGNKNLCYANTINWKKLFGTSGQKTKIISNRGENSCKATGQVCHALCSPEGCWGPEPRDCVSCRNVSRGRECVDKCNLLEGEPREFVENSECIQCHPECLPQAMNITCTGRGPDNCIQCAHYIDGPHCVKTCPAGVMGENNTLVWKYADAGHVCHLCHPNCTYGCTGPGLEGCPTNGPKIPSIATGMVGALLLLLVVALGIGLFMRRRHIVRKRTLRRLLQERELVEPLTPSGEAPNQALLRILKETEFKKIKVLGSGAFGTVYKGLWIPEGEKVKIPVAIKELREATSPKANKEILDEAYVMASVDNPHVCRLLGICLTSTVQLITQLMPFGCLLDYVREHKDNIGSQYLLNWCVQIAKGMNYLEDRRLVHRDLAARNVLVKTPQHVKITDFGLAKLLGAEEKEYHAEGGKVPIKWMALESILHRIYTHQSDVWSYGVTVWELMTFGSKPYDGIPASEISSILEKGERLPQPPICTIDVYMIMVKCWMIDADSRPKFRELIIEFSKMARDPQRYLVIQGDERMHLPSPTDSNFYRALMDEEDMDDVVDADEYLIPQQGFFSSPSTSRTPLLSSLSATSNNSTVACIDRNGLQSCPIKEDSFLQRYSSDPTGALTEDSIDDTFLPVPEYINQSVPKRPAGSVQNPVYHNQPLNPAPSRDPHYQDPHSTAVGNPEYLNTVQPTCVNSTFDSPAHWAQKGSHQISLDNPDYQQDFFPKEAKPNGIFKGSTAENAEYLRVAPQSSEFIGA
Chain of c-Raf (P04049 whole entry, species assumed): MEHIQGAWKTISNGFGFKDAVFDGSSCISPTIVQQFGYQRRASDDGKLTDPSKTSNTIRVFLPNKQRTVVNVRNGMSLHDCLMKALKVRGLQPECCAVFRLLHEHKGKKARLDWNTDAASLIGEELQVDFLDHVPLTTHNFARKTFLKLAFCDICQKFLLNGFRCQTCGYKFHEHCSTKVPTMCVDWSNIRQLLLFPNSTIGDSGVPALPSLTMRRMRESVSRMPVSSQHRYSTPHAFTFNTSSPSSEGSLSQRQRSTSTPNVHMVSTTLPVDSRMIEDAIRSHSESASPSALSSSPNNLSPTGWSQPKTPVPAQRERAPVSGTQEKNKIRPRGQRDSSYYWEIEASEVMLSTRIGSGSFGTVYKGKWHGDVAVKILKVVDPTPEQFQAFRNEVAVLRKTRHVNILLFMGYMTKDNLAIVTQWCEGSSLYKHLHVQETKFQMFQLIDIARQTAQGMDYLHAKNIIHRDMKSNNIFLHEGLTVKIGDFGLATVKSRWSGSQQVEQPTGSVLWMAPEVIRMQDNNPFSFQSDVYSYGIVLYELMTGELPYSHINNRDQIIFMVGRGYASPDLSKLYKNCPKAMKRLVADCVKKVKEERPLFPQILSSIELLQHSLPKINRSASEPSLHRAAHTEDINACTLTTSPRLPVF
Chain of Kit (P10721 26-976, species assumed): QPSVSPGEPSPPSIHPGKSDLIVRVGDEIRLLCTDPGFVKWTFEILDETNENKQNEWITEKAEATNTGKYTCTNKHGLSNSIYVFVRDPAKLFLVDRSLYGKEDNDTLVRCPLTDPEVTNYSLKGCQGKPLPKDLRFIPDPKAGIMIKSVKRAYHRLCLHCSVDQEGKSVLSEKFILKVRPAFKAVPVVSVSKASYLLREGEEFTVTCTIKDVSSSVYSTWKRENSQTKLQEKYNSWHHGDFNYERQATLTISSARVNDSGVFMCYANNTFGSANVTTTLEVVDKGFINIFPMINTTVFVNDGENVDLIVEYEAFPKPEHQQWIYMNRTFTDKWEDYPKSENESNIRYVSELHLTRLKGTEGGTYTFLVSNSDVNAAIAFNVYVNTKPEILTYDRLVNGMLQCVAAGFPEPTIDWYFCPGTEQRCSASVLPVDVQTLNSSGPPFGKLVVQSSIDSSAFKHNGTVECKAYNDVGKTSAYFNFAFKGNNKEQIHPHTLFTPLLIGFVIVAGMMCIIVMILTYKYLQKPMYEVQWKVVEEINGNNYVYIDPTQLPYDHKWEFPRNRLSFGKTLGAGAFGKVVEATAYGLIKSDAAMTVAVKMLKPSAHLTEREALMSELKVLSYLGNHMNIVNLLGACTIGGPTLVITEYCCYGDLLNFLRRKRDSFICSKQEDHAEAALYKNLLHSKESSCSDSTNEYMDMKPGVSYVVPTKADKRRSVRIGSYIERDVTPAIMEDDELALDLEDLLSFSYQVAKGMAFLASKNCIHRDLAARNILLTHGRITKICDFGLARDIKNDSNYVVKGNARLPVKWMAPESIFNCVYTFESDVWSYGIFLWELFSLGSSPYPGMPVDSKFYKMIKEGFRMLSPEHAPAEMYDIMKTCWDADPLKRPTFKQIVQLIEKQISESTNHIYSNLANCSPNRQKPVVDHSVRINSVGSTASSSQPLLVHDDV
Chain of c-Src (P12931 whole entry, species assumed): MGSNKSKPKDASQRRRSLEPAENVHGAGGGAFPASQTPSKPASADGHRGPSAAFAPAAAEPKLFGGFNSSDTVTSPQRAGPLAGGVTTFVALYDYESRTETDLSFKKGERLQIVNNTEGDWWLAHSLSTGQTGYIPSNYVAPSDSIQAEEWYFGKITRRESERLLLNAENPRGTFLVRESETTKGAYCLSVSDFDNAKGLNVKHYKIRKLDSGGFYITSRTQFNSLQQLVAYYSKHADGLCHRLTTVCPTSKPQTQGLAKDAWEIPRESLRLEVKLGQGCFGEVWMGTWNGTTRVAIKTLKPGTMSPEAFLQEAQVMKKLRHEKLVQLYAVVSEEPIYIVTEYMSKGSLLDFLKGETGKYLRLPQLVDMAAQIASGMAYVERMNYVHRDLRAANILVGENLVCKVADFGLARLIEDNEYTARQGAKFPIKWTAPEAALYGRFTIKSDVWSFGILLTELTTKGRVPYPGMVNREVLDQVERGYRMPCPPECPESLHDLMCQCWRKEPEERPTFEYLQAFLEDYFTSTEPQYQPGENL
Chain of Abl (P00519 whole entry, species assumed): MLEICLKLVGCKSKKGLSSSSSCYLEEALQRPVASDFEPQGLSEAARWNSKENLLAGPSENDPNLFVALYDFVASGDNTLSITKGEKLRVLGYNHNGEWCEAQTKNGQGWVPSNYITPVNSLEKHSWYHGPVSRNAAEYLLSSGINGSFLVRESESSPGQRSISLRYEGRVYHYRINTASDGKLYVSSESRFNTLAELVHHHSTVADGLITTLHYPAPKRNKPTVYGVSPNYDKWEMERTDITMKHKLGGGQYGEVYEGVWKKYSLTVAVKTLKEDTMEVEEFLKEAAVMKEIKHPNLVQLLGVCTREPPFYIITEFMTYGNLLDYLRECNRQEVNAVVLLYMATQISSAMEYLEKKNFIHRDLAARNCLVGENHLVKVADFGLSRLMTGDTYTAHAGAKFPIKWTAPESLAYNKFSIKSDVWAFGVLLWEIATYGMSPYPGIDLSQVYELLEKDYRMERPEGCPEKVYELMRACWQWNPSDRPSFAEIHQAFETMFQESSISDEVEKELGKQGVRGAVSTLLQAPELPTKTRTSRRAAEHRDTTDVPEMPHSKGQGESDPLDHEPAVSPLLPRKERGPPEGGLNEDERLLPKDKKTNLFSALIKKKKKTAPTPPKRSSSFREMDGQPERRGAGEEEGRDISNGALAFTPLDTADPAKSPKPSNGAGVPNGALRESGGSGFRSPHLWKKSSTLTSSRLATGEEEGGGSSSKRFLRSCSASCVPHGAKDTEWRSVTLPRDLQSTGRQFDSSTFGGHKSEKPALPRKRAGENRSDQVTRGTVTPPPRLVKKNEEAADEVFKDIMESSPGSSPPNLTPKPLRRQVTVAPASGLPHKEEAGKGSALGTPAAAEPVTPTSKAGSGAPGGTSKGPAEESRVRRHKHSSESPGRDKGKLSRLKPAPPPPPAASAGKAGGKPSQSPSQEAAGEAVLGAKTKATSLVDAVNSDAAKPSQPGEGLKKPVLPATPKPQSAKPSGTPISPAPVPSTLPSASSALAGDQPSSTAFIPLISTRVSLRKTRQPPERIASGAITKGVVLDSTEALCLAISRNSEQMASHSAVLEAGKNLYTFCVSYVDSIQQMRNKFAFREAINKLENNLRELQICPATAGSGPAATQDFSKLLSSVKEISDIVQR
Chain of P56Lck (P06239 whole entry, species assumed): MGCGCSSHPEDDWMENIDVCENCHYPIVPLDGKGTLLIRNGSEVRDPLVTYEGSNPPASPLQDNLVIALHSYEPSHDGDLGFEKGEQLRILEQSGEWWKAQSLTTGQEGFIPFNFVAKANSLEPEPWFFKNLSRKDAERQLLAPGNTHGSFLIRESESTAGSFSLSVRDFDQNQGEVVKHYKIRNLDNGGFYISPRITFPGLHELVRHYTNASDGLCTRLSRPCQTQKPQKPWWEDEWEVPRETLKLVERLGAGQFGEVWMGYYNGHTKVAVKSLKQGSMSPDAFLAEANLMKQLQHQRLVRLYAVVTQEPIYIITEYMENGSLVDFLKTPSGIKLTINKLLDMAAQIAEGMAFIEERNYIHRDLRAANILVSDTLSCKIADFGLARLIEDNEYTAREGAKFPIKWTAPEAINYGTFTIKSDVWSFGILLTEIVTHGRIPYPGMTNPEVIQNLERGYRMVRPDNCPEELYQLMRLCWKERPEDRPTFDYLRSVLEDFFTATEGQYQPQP

| Compound | inhibition at 10 µM [1] [%] | inhibition at 10 µM [2] [%] | inhibition at 10 µM [3] [%] | inhibition at 10 µM [4] [%] | inhibition at 10 µM [5] [%] | inhibition at 10 µM [6] [%] | inhibition at 10 µM [7] [%] | inhibition at 10 µM [8] [%] | inhibition at 10 µM [9] [%] | inhibition at 10 µM [10] [%] | inhibition at 10 µM [11] [%] | inhibition at 10 µM [12] [%] | inhibition at 10 µM [13] [%] | melting point [°C] | inhibition at 10 µM [14] [%] | inhibition at 10 µM [15] [%] | inhibition at 10 µM [16] [%] | inhibition at 10 µM [17] [%] | inhibition at 10 µM [18] [%] | inhibition at 10 µM [19] [%] | also measured |
| --- | --- | --- | --- | --- | --- | --- | --- | --- | --- | --- | --- | --- | --- | --- | --- | --- | --- | --- | --- | --- | --- |
| Nc1cccc(Nc2nc(C3CC3)nc3sc4c(c23)CCCC4)c1 [Compound 12, N-(2-Cyclopropyl-5,6,7,8-tetrahydro-benzo[4,5]thieno[2,3-d]pyrimidin-4-yl)-benzene-1,3-diamine] | -13 | -5 | 9 | 5 | -8 | 21 | 0 | -6 | -11 | 9 | 5 | 22 | 4 | 185.9 | -13 | -3 | 9 | 0 | -3 | 0 | inhibition at 10 µM [20]: -8% |
| O=[N+]([O-])c1cccc(Nc2nc(C3CC3)nc3sc4c(c23)CCCC4)c1 [Compound 13, (2-Cyclopropyl-5,6,7,8-tetrahydro-benzo[4,5]thieno[2,3-d]pyrimidin-4-yl)-(3-nitro-phenyl)-amine] | -15 | -9 | 12 | 26 | -12 | 11 | -18 | -4 | -14 | -9 | 3 | 9 | 1 | 211.7 | -2 | 0 | 9 | -6 | -7 | -6 | inhibition at 10 µM [20]: -18% |
| N#Cc1cccc(Nc2nc(C3CC3)nc3sc4c(c23)CCCC4)c1 [Compound 14, 3-(2-Cyclopropyl-5,6,7,8-tetrahydro-benzo[4,5]thieno[2,3-d]pyrimidin-4-ylamino)-benzonitrile] | -3 | -4 | 6 | 72 | -12 | 11 | -4 | -7 | -4 | -6 | 12 | -3 | 5 | 176.3 | -1 | 0 | 2 | 2 | -5 | -4 | inhibition at 10 µM [20]: -3% |

The next lines start with results.

| inhibition at 10 µM [1] [%] | inhibition at 10 µM [2] [%] | inhibition at 10 µM [3] [%] | inhibition at 10 µM [4] [%] | inhibition at 10 µM [5] [%] | inhibition at 10 µM [6] [%] | inhibition at 10 µM [7] [%] | inhibition at 10 µM [8] [%] | inhibition at 10 µM [9] [%] | inhibition at 10 µM [10] [%] | inhibition at 10 µM [11] [%] | inhibition at 10 µM [12] [%] | inhibition at 10 µM [13] [%] | melting point [°C] | inhibition at 10 µM [14] [%] | inhibition at 10 µM [15] [%] | inhibition at 10 µM [16] [%] | inhibition at 10 µM [17] [%] | inhibition at 10 µM [18] [%] | inhibition at 10 µM [19] [%] | Compound | also measured |
| --- | --- | --- | --- | --- | --- | --- | --- | --- | --- | --- | --- | --- | --- | --- | --- | --- | --- | --- | --- | --- | --- |
| 0 | -3 | -7 | 4 | -1 | -5 | -14 | 3 | -4 | 4 | 6 | -6 | 8 | 204.8 | 1 | -1 | 20 | -3 | 2 | 4 | FC(F)(F)c1cccc(Nc2nc(C3CC3)nc3sc4c(c23)CCCC4)c1 [Compound 11, (2-Cyclopropyl-5,6,7,8-tetrahydro-benzo[4,5]thieno[2,3-d]pyrimidin-4-yl)-(3-trifluoromethyl-phenyl)-amine] | inhibition at 10 µM [20]: -5% |
| 12 | -3 | -5 | 9 | 1 | 12 | 8 | -6 | -7 | 12 | 9 | 23 | 5 | 186.7 | -9 | 5 | 4 | -6 | -13 | 6 | COc1cccc(Nc2nc(C3CC3)nc3sc4c(c23)CCCC4)c1 [Compound 15, (2-Cyclopropyl-5,6,7,8-tetrahydro-benzo[4,5]thieno[2,3-d]pyrimidin-4-yl)-(3-methoxy-phenyl)-amine] | inhibition at 10 µM [20]: -14% |
| 3 | -4 | 7 | 60 | -1 | 10 | 2 | 0 | -3 | -4 | 9 | 2 | 2 | 193 | -7 | 0 | 8 | 1 | -4 | 6 | Fc1cccc(Nc2nc(C3CC3)nc3sc4ccccc4c23)c1 [Compound 16, (2-Cyclopropyl-benzo[4,5]thieno[2,3-d]pyrimidin-4-yl)-(3-fluoro-phenyl)-amine] | inhibition at 10 µM [20]: -2% |
